The target in data set [1] is T1, recombinant MAO-A (Homo sapiens, UniProt P21397).
T1 construct: purchased Corning Life Sciences B.V
T1 sequence (P21397 1-527): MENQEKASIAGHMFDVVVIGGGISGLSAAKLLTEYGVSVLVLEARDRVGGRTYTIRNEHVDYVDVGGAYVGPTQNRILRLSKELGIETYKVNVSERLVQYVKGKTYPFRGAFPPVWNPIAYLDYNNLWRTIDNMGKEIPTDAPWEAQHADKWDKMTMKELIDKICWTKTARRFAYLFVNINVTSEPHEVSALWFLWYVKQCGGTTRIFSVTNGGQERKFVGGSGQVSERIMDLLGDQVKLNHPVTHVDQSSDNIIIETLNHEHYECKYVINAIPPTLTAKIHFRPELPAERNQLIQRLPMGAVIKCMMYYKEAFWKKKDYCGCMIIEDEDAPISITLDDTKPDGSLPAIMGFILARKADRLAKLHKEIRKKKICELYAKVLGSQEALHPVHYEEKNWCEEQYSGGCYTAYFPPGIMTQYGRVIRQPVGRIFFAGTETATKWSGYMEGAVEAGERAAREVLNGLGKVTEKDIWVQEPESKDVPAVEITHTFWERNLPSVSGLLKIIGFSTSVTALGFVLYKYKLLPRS
Briefly: Incubation with recombinant MAO-A enzymes. It counts as in vitro ADME. The protocol: (§1) Corning UltraPool human liver microsomes (HLM) 150 (20 mg/mL), human intestinal microsomes (HIM) pool (10 mg/mL) as well as recombinant human CYP enzymes (with P450 oxidoreductase, OR) including CYP1A2+OR (0.5 nmol), CYP2B6+OR (0.5 nmol), CYP2C8+OR (1.0 nmol), CYP2C9*1+OR (1 nmol), CYP2C19+OR (0.5 nmol), CYP2D6*1+OR (0.5 nmol), CYP2E1+OR + cytochrome b5 (1 nmol), CYP3A4+OR + cytochrome b5 (0.5 nmol), MAO-A (5 mg/mL), MAO-B (5 mg/mL), and UGT1A10 (5 mg/mL) were purchased from Corning Life Sciences B.V (Amsterdam, Netherlands). All microsomes and recombinant enzyme solutions were aliquoted and stored at −80 °C until further use.
(§2) The MAO inhibition assay was based on the assay described in section 2.5.1 and performed identically if not otherwise stated.

Data set [2] concerns the target T2, recombinant MAO-B (Homo sapiens, UniProt P27338).
T2 construct: purchased Corning Life Sciences B.V
T2 sequence (P27338 1-520): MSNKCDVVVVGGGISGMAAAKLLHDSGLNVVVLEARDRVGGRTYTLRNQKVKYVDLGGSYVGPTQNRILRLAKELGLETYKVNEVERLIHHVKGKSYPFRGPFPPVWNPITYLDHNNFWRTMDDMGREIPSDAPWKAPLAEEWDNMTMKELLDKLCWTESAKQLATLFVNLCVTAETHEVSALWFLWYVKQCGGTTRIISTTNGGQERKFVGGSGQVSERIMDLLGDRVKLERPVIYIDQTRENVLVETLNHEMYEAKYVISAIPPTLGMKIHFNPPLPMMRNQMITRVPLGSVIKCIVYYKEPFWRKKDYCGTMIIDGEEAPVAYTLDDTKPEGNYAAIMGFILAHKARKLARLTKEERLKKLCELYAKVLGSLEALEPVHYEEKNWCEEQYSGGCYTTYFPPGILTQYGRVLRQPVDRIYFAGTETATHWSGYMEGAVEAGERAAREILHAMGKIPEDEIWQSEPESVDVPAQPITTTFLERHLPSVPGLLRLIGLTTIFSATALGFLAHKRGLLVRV
Briefly: Incubation with recombinant MAO-B enzymes. It counts as in vitro ADME. The method, then: as §1, §2

The target of data set [3] is T3, MAO-A in human liver microsomes (HLM) (Homo sapiens, UniProt P21397).
T3 construct: tissue Corning Life Sciences B.V; host or cells: pooled human liver microsomes
T3 sequence (P21397 1-527): T1 sequence (P21397 1-527)
Briefly: Monoamine oxidase A inhibition in human liver microsomes. The conditions noted are these: 5 μM kynuramine, t = 240 min. It counts as in vitro ADME. In general terms: Microsomes from liver hold many membrane-bound enzymes, among them those of drug oxidation.

Data set [4] is described as follows: Pharmacokinetics and metabolites in mouse plasma after oral psilocybin. It counts as in vivo, C57BL/6J mice. The conditions noted are these: for half-life / Cmax / Tmax: male, C57BL/6J, po; for half-life: mouse, plasma, read-out: elimination half-life t1/2 (mean ± SD) (converted); for Cmax: read-out: Cmax (mean ± SD); for Tmax: read-out: tmax (mean ± SD). The method, then: C57BL/6J adult male mice (Janvier, Le Genest-Saint-Isle, France) were maintained in littermate pairs in standard cages (containing sawdust, a sleeping chamber, tissue paper, and a wood stick) with water and pellet food available ad libitium. The colony room was on a reversed light-dark cycle (dark phase 07:00 to 19:00) with temperature at 22°C and humidity at 50–60%. A total of 10 mice were dosed orally with either 3 mg/kg bodyweight psilocybin (n = 5) or saline solution (n = 5). Dosing and blood sampling were conducted between 09:00 and 13:00. The mouse was placed in a plastic restrainer with the tail protruding through a hole in the end of the tube. The tail was immersed in warm water for 1 min for vasodilation and then a small incision was made on the lateral tail surface near the distal tip. 50 μL of blood was massaged gently into an EDTA-coated capillary blood tube (Mircovette, Sarstedt, Nümbrecht, Germany). The first (baseline) blood sample was collected directly before compound administration via oral gavage and the mouse was then returned to the home cage. Further blood samples were collected at 15, 30, 60, and 120 min post-treatment. Each sample was drawn from the same incision site, with mice maintained in the home cage in the intervening periods. The blood samples were stored on ice and centrifuged for 10 min at 780 × g and 4°C. Subsequently, the plasma was transferred into cryotubes (Protein LoBind, Eppendorf) and stored at −80 °C until analysis. All procedures were conducted under a permit for animal experimentation (ZH038/2022) issued by the Veterinary Office Zurich in accordance with the Animal Protection Act (1978) of Switzerland. The use of psilocybin was authorized by the Federal Office of Public Health (FOPH).
Pharmacokinetic parameters were calculated using Phoenix WinNonlin software (version 8.1.0, Certara, Princeton, USA). The elimination half-life (t1/2, min) was assessed as t1/2 = ln(2)/λ, while the elimination constant was calculated by linear regression in the terminal elimination phase. The maximal plasma concentration (Cmax, ng/mL) and the time to reach this concentration (tmax, h) were direct read-outs of the graphical plots.

For data set [5] the following is noted: ref Holze et al., 2022a, cited from earlier work.
Data set [6] addresses T4, recombinant human UGT1A10 (Homo sapiens, UniProt Q9HAW8).
T4 construct: purchased Corning Life Sciences B.V
T4 sequence (Q9HAW8 26-530): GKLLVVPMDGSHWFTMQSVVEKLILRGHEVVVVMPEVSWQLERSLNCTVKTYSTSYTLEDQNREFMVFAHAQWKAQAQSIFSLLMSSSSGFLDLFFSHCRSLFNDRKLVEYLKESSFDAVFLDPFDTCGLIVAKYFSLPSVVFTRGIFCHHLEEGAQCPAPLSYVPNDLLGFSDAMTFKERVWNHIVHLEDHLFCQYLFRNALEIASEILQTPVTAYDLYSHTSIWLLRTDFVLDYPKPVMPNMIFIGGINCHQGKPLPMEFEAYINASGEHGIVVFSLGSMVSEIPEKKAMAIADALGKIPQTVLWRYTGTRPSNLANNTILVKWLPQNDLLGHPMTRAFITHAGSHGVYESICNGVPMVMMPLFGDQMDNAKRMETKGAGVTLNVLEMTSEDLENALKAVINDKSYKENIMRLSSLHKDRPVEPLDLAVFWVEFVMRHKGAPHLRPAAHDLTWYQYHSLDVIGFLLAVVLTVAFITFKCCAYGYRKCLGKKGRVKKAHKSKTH
Kind of data set: Glucuronidation with recombinant UGT1A10. The format is in vitro ADME. The method, then: as §1
The assay described in section 2.5.1 was adjusted to suit the glucuronidation system.

Data set [7] deals with human intestinal microsomes (HIM). Kind of data set: Glucuronidation with human intestinal microsomes. It counts as in vitro ADME. The conditions noted are these: HIM. The protocol:
as §1, with “use. Co-factors including NADPH regenerating system solution A (25 mM NADP+, 66 mM glucose-6-phosphate, and 66 mM MgCl2 in water), NADPH regenerating system solution B (40 U/mL glucose-6-phosphate dehydrogenase in 5 mM sodium citrate), UGT reaction mix solution A (25 mM uridine 5′-diphospho-glucuronic acid in water), and UGT reaction mix solution B (250 mM Tris-HCl, 40 mM MgCl2, and 0.125 mg/mL alamethicin in water) were also obtained from Corning Life Sciences B.V.” for “use.”
The assay described in section 2.5.1 was adjusted to suit the glucuronidation system. […] HLM were diluted as described in section 2.5.1, while HIM or UGT1A10 enzymes were diluted 1:40 (end concentration […] and 0.125 mg/mL, respectively) in the reaction mix. Sampling time points were adjusted to 0, 15, 30, 60, 90, 120, 180, and 240 min.

The mark [8] stands for this setting: 1,000 nM DMT, rec. MAO-A, t = 240 min.
The mark [9] stands for this setting: 1,000 nM DMT, rec. MAO-B, t = 240 min.
Setting [10] is: 3 mg/kg, mouse plasma, 3 mg/kg psilocybin p.o., n = 5.
The mark [11] stands for this setting: mouse plasma, 3 mg/kg psilocybin p.o., n = 5.

Each structure is given as a SMILES string. Where a name gives a salt, the structure may show the parent alone.

Consider `CN(C)CCc1c[nH]c2ccccc12` [DMT, N,N-dimethyltryptamine], for which the DMT concentration worked out at 907 ± 31 nM in data set [1] (1,000 nM DMT, rec. MAO-A, t = 0 min); 110 ± 29 nM in data set [1] (setting [8]); 915 ± 11 nM in data set [1] (rec. MAO-A with clorgyline, t = 0 min); 853 ± 69 nM in data set [1] (rec. MAO-A with clorgyline, t = 240 min); 940 ± 47 nM in data set [2] (1,000 nM DMT, rec. MAO-B, t = 0 min); 816 ± 56 nM in data set [2] (setting [9]). For the same compound, the DMT concentration is 954 ± 73 nM in data set [2] (rec. MAO-B with R-deprenyl, t = 0 min) and 1,008 ± 58 nM in data set [2] (rec. MAO-B with R-deprenyl, t = 240 min).

`Oc1ccnc2ccccc12` [4-HQ, 4-hydroxyquinoline]: the “4-HQ concentration formed from kynuramine” value in data set [1] (5 μM kynuramine, rec. MAO-A, t = 300 min) is 2,694 ± 264 nM; in data set [3] (HLM with clorgyline) it was 347 ± 67 nM; in data set [3] (HLM), 1,974 ± 302 nM; in data set [2] (5 μM kynuramine, rec. MAO-B, t = 240 min), 4,692 ± 891 nM.

Consider `NCCC(=O)c1ccccc1N` [kynuramine, kynuramine dihydrobromide], for which the kynuramine signal in data set [1] (rec. MAO-A, t = 0 min) is given as 135,200 ± 23,816 counts; in data set [1] (rec. MAO-A, t = 300 min), 48,503 ± 12,251 counts; in data set [2] (rec. MAO-B, t = 0 min), 82,853 ± 11,336 counts; in data set [2] (rec. MAO-B, t = 240 min) it was 9,533 ± 8,311 counts.

In the case of `O=C(O)Cc1c[nH]c2cccc(OC3O[C@H](C(=O)O)[C@@H](O)[C@H](O)[C@H]3O)c12` (stereo partly drawn) [4-HIAA-glucuronide], in data set [4] (setting [10]), the half-life is 82.8 ± 16.2 min. For the same compound, in data set [4] (setting [11]), the Cmax (in general, the maximum level reached in the sampled fluid or tissue) stood at 30 ± 6.7 ng/mL and the Tmax (commonly the time at which the peak concentration occurs) turned out to be 27 ± 6.6 min.

As for `CN(C)CCc1c[nH]c2cccc(OC3O[C@H](C(=O)O)[C@@H](O)[C@H](O)[C@H]3O)c12` (stereo partly drawn) [psilocin-O-glucuronide], the half-life in data set [4] (setting [10]) is 58.2 ± 3.6 min. For the same compound, in data set [4] (setting [11]), the Cmax is 521 ± 57 ng/mL and the Tmax turned out to be 21 ± 8.4 min. Further, the “mean Cmax relative to psilocin (higher)” value in data set [4] (mouse plasma, 3 mg/kg psilocybin p.o.) turned out to be 2.6 fold. Moreover, in data set [4] (mouse plasma, 3 mg/kg psilocybin p.o., n = 5, 3 mg/kg), the “elimination half-life t1/2 (mean ± SD)” value is about 60 min. Moreover, the “half-life in mice relative to humans (lower)” value in data set [4] (mouse versus human) was “around 4 fold”. Also, the “plasma concentrations of conjugated psilocin relative to free psilocin (higher)” value in data set [5] (clinical studies) was “around 4 fold”. In data set [5] (humans, oral psilocybin, within 24 h (time not stated for 4-HIAA)), the “fraction of administered psilocybin dose excreted in urine” value was “Approximately 20%”. Moreover, the half-life in humans result in data set [5] (humans) is “around 4 h”.

Consider `O=C(O)Cc1c[nH]c2ccccc12` [IAA, indole-3-acetic acid], for which the “IAA concentration formed from DMT” value in data set [1] (setting [8]) came out at 30.3 ± 4.2 nM; in data set [2] (setting [9]) it was 11.5 ± 4.5 nM.

Consider `O=C1Nc2c(O)cc(Cl)cc2[C@@](C#CC2CC2)(C(F)(F)F)O1` [OH-efavirenz, 8-hydroxy-efavirenz], for which the OH-efavirenz glucuronidated in data set [6] (rec. UGT1A10, over 240 min, control condition) is 98%; in data set [7] (over 240 min, control condition) it was 99%. Also, the OH-efavirenz peak area in data set [6] (rec. UGT1A10, t = 0) was 41,700 ± 10,936 counts; in data set [6] (rec. UGT1A10, t = 240 min), 1,007 ± 155 counts; in data set [7] (t = 0) it was 45,300 ± 5,766 counts; in data set [7] (t = 240 min), 470 ± 394 counts.

These data come from publication PMC11089204 (Frontiers in Pharmacology, 2024).
